How the values were obtained:
[1] = normal refrigerator temperature of approximately 4° C.; cited from earlier work
[2] = Accelerated shelf life tests of sodium folinate injection, 40° C./75% RH; assay type: physicochemical; conditions: during autoclaving (121° C. for 7 min)
Procedure: Tests were carried out with sodium folinate bulk solutions of 200 ml containing 25, 100, 250 and 400 mg sodium folinate/ml respectively as indicated in Table 1. Each bulk solution was prepared with a 2% excess of sodium folinate, because during autoclaving ca. 2% folinic acid decomposes. Subsquently, 2.15 ml of each formulated solution was used to fill 2R bottles to the exclusion of air. Afterwards, the bottles were then autoclaved at 121° C. for 7 min. The bottles were thereafter stored at 40° C./75% RH (RH=relative humidity). The following analyses were carried out initially at the beginning of the test and after two weeks:
oxygen percentage in the headspace
content of folinic acid and decomposition products.
The results are summarized in the Tables 2-5 for the accelerated shelf life tests of the sodium folinate injection preparation having a content of sodium folinate of 25 mg/ml, 100 mg/ml, 250 mg/ml and 400 mg/ml, respectively. The bottles were stored at 40° C./[…] during the two week time period for the shelf life tests.

| SMILES | Concentration at which crystallization takes place [1] | Folinic acid decomposed during autoclaving [2] |
| --- | --- | --- |
| Nc1nc(=O)c2c([nH]1)NCC(CNc1ccc(C(=O)N[C@@H](CCC(=O)[O-])C(=O)[O-])cc1)N2C=O.[Ca+2] (some centres unmarked) [Calcium folinate, calcium folinate] | ≥ 15000 µg/mL | – |
| Nc1nc(=O)c2c([nH]1)NC[C@@H](CNc1ccc(C(=O)N[C@@H](CCC(=O)O)C(=O)O)cc1)N2C=O [folinic acid] | – | ca. 2% |

Reference: patent US6613767B1, “Stable aqueous folinate solution” (Pharmachemie B.V., priority 1994, dated 2003)
